Activity calls are given as the source filed them. No rule for the calls is given here.
Tested on: rodent carcinogenicity bioassays, tumor incidence
Assay: CCRIS carcinogenicity studies
Outline: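 NCI-built, expert-reviewed records of carcinogenicity and related test outcomes (mutagenicity, tumor promotion/inhibition) compiled from published and report sources, historical span 1985-2011, not updated.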

c1ccc(N=Nc2ccccc2)cc1
carcinogen call (Species: MOUSE, Strain/Sex: B6C3F1/FEMALE, Route: ORAL, Dose: 0, 208, 545 PPM IN DIET, TWA, Dose: 0, 208, 545 PPM IN DIET, TWA): inactive; negative | carcinogen call (Species: MOUSE, Strain/Sex: B6C3F1/MALE, Route: ORAL, Dose: 0, 200, 400 PPM IN DIET, Dose: 0, 200, 400 PPM IN DIET): inactive; negative | carcinogen call (Species: RAT, Strain/Sex: F344/FEMALE, Route: ORAL, Dose: 0, 200, 400 PPM IN DIET FOR 106 WK (STUDY DURATION: 106 WK), Dose: 0, 200, 400 PPM IN DIET FOR 106 WK (STUDY DURATION: 106 WK), Tumor Site: Type of Lesion: SPLEEN OR PERITONEUM: SARCOMA): active; positive | carcinogen call (Species: RAT, Strain/Sex: F344/FEMALE, Route: ORAL, Dose: 0, 200, 400 PPM IN DIET, Dose: 0, 200, 400 PPM IN DIET, Tumor Site: Type of Lesion: SPLEEN: FIBROSARCOMA, OSTEOSARCOMA, PERITONEAL CAVITY: SARCOMA): active; positive | carcinogen call (Species: RAT, Strain/Sex: F344/MALE, Route: ORAL, Dose: 0, 200, 400 PPM IN DIET FOR 106 WK (STUDY DURATION: 106 WK), Dose: 0, 200, 400 PPM IN DIET FOR 106 WK (STUDY DURATION: 106 WK), Tumor Site: Type of Lesion: SPLEEN OR PERITONEUM: SARCOMA): active; positive | carcinogen call (Species: RAT, Strain/Sex: F344/MALE, Route: ORAL, Dose: 0, 200, 400 PPM IN DIET, Dose: 0, 200, 400 PPM IN DIET, Tumor Site: Type of Lesion: SPLEEN: FIBROSARCOMA, PERITONEAL CAVITY: SARCOMA): active; positive

OC1c2cccc3c4ccccc4c4c5ccccc5cc(c4c23)C1O (stereo not drawn)
carcinogen call (Species: MOUSE, Strain/Sex: SWISS/FEMALE, Route: DERMAL, Dose: 0, 1, 4 NMOL IN 100 µL ACETONE 2/WK FOR 40 WK (STUDY DURATION: 48 WK), Dose: 0, 1, 4 NMOL IN 100 µL ACETONE 2/WK FOR 40 WK (STUDY DURATION: 48 WK)): inactive; negative

CN(N=O)C(=O)NCCC[C@H](N)C(=O)O
carcinogen call (Species: HAMSTER, Strain/Sex: SYRIAN/FEMALE, Route: INTRAPERITONEAL, Dose: 218, 654 MG/KG 1/WK FOR 12 WK (LOW DOSE) OR 6 WK (HIGH DOSE), Tumor Site: Type of Lesion: PANCREAS: CARCINOMA, CARCINOMA (IN SITU), PERITONEAL CAVITY: MESOTHELIOMA;MAMMARY GLAND: CARCINOMA, STOMACH: PAPILLOMA,, Tumor Site: Type of Lesion: PANCREAS: CARCINOMA, CARCINOMA (IN SITU), PERITONEAL CAVITY: MESOTHELIOMA;MAMMARY GLAND: CARCINOMA, STOMACH: PAPILLOMA): active; positive | carcinogen call (Species: HAMSTER, Strain/Sex: SYRIAN/MALE, Route: INTRAPERITONEAL, Dose: 218, 654 MG/KG 1/WK FOR 12 WK (LOW DOSE) OR 6 WK (HIGH DOSE), Tumor Site: Type of Lesion: PANCREAS: CARCINOMA, CARCINOMA (IN SITU), STOMACH: PAPILLOMA): active; positive

Nc1cnn([C@@H]2O[C@H](CO)[C@@H](O)[C@H]2O)c(=O)n1
carcinogen call (Species: RAT, Strain/Sex: F344/MALE, Route: INTRAPERITONEAL, Dose: 0, 2.5 MG/KG IN 0.9% SALINE 3/WK FOR 1 YR (STUDY DURATION: 1 YR)): inactive; negative

ClC1=C(Cl)C2(Cl)C3C(Cl)C=CC3C1(Cl)C2(Cl)Cl (stereo not drawn)
carcinogen call (Species: MOUSE, Strain/Sex: B6C3F1/FEMALE, Route: ORAL, Dose: 0, 9, 18 PPM IN DIET, Dose: 0, 9, 18 PPM IN DIET, Tumor Site: Type of Lesion: LIVER: HEPATOCELLULAR CARCINOMA): active; positive | carcinogen call (Species: MOUSE, Strain/Sex: B6C3F1/MALE, Route: ORAL, Dose: 0, 6.1, 13.8 PPM IN DIET, TWA, Dose: 0, 6.1, 13.8 PPM IN DIET, TWA, Tumor Site: Type of Lesion: LIVER: HEPATOCELLULAR CARCINOMA): active; positive | carcinogen call (Species: RAT, Strain/Sex: OSBORNE-MENDEL/FEMALE, Route: ORAL, Dose: 0, 25.7, 51.3 PPM IN DIET FOR 80 WK (STUDY DURATION: 111 WK), Dose: 0, 25.7, 51.3 PPM IN DIET FOR 80 WK (STUDY DURATION: 111 WK), Tumor Site: Type of Lesion: THYROID GLAND: FOLLICULAR CELL CARCINOMA OR ADENOMA): equivocal | carcinogen call (Species: RAT, Strain/Sex: OSBORNE-MENDEL/MALE, Route: ORAL, Dose: 0, 38.9, 77.9 PPM IN DIET, TWA, Dose: 0, 38.9, 77.9 PPM IN DIET, TWA): inactive; negative

CC(=O)Nc1ccc(-c2ccc(N(O)C(C)=O)cc2)cc1
carcinogen call (Species: RAT, Strain/Sex: STRAIN-CD/FEMALE, Route: INTRAPERITONEAL, Dose: 0, 10, 30 UMOL/KG IN TRIOCTANOIN 2/WK FOR 4 WK (TOTAL DOSES: 13.2, 40.0 UMOL) (STUDY DURATION: 46 WK), Dose: 0, 10, 30 UMOL/KG IN TRIOCTANOIN 2/WK FOR 4 WK (TOTAL DOSES: 13.2, 40.0 UMOL) (STUDY DURATION: 46 WK), Tumor Site: Type of Lesion: MAMMARY GLAND: FIBROADENOMA, ADENOCARCINOMA, EAR (ZYMBAL GLAND): ADENOMA OR CARCINOMA): active; positive

CC(C)[C@@H]1CC[C@@H](C)C[C@H]1O
carcinogen call (Species: MOUSE, Strain/Sex: B6C3F1/FEMALE, Route: ORAL, Dose: 0, 2000, 4000 PPM IN DIET, Dose: 0, 2000, 4000 PPM IN DIET): inactive; negative | carcinogen call (Species: MOUSE, Strain/Sex: B6C3F1/MALE, Route: ORAL, Dose: 0, 2000, 4000 PPM IN DIET, Dose: 0, 2000, 4000 PPM IN DIET): inactive; negative | carcinogen call (Species: RAT, Strain/Sex: F344/FEMALE, Route: ORAL, Dose: 0, 3750, 7500 PPM IN DIET, Dose: 0, 3750, 7500 PPM IN DIET): inactive; negative | carcinogen call (Species: RAT, Strain/Sex: F344/MALE, Route: ORAL, Dose: 0, 3750, 7500 PPM IN DIET, Dose: 0, 3750, 7500 PPM IN DIET): inactive; negative

c1ccc2nc3c(cc2c1)c1c(c2ccccc23)O1
carcinogen call (Species: MOUSE, Strain/Sex: SWISS/FEMALE, Route: INTRAPERITONEAL, Dose: 0, 1.05 UMOL GIVEN AS 150 NMOL IN 5 µL DMSO WITHIN 24 HR OF BIRTH, 300 NMOL IN 10 µL DMSO ON D 8 OF LIFE, AND 600 NMOL I, Tumor Site: Type of Lesion: LUNG: ADENOMA): active; positive | carcinogen call (Species: MOUSE, Strain/Sex: SWISS/MALE, Route: INTRAPERITONEAL, Dose: 0, 1.05 UMOL GIVEN AS 150 NMOL IN 5 µL DMSO WITHIN 24 HR OF BIRTH, 300 NMOL IN 10 µL DMSO ON D 8 OF LIFE, AND 600 NMOL I): inactive; negative

NC(=O)OCCO
carcinogen call (Species: MOUSE, Strain/Sex: STRAIN-A/MALE, Route: INTRAPERITONEAL, Dose: 0, 1.12, 4.6, 11.2 MMOL/KG IN ISOTONIC SALINE ONCE AT 6 WK OF AGE (STUDY DURATION: 16 WK), Dose: 0, 1.12, 4.6, 11.2 MMOL/KG IN ISOTONIC SALINE ONCE AT 6 WK OF AGE (STUDY DURATION: 16 WK), Tumor Site: Type of Lesion: LUNG: ADENOMA): active; positive

O=NN1CCOC1
carcinogen call (Species: HAMSTER, Strain/Sex: SYRIAN/MALE, Route: INTRAGASTRIC, Dose: 0, 23 MG/ML IN 0.2 ML STERILIZED WATER 1/WK FOR 35 WK (TOTAL DOSE 161 MG) (STUDY DURATION: LIFESPAN), Tumor Site: Type of Lesion: LIVER: HEPATOCELLULAR CARCINOMA, ADENOMA, HEMANGIOSARCOMA, CHOLANGIOCARCINOMA): active; positive | carcinogen call (Species: RAT, Strain/Sex: F344/FEMALE, Route: ORAL, Dose: 35 MG/L IN DRINKING WATER FOR 50 WK, Tumor Site: Type of Lesion: LIVER: HEPATOCELLULAR CARCINOMA, HEMANGIOENDOTHELIAL SARCOMA): active; positive

OCCCl
carcinogen call (Species: MOUSE, Strain/Sex: CD-1/FEMALE, Route: DERMAL, Dose: 0, 7.5, 15 MG/ANIMAL IN 70% ETHANOL IN WATER 5 D/WK FOR 104 WK, Dose: 0, 7.5, 15 MG/ANIMAL IN 70% ETHANOL IN WATER 5 D/WK FOR 104 WK): inactive; negative | carcinogen call (Species: MOUSE, Strain/Sex: CD-1/MALE, Route: DERMAL, Dose: 0, 7.5, 15 MG/ANIMAL IN 70% ETHANOL IN WATER 5 D/WK FOR 104 WK, Dose: 0, 7.5, 15 MG/ANIMAL IN 70% ETHANOL IN WATER 5 D/WK FOR 104 WK): inactive; negative | carcinogen call (Species: RAT, Strain/Sex: F344/FEMALE, Route: DERMAL, Dose: 0, 50, 100 MG/KG IN 70% ETHANOL IN WATER 5 D/WK FOR 103 WK, Dose: 0, 50, 100 MG/KG IN 70% ETHANOL IN WATER 5 D/WK FOR 103 WK): inactive; negative | carcinogen call (Species: RAT, Strain/Sex: F344/MALE, Route: DERMAL, Dose: 0, 50, 100 MG/KG IN 70% ETHANOL IN WATER 5 D/WK FOR 103 WK, Dose: 0, 50, 100 MG/KG IN 70% ETHANOL IN WATER 5 D/WK FOR 103 WK): inactive; negative

From PubChem BioAssay AID1259411 (Chemical Carcinogenesis Research Information System (CCRIS), 2018)
